Laboratory results published in ChEMBL document CHEMBL1201862, “PubChem BioAssay data set” (2004).
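Step 1: Grow cells in 96-well plates. Step 2: Expose to compound for 48 hours at 5 concentrations. Step 3: Interpolate endpoints linearly; if unreached, use highest concentration. GI50: concentration for 50% inhibition of growth.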 Active and inactive are the calls of the source. Cut-off read from the data, not from the text of the source: active = GI50 up to about 1.1 µM and inactive = higher. Where a SMILES comes first, the peptide text is derived from it. The star is where a group is joined. Cbz = O=C(OCc1ccccc1)*

Experiments:
Test in all cases: NCI-60 cell line screen, 48 h
OVCAR-8 = tested on: OVCAR-8
HT-29 = tested on: HT-29
SK-MEL-28 = tested on: SK-MEL-28
SR = tested on: SR
U-251 = tested on: U-251
MDA-MB-435 = tested on: MDA-MB-435
LOX IMVI = tested on: LOX IMVI
SK-MEL-2 = tested on: SK-MEL-2
M14 = tested on: M14
PC-3 = tested on: PC-3
UO-31 = tested on: UO-31
SK-OV-3 = tested on: SK-OV-3
SN12C = tested on: SN12C
786-0 = tested on: 786-0
EKVX = tested on: EKVX
DU-145 = tested on: DU-145
SNB-75 = tested on: SNB-75
UACC-62 = tested on: UACC-62
UACC-257 = tested on: UACC-257
NCI-H226 = tested on: NCI-H226
A549 = tested on: A549
CCRF-CEM = tested on: CCRF-CEM
HOP-92 = tested on: HOP-92
OVCAR-3 = tested on: OVCAR-3
KM12 = tested on: KM12
NCI-H23 = tested on: NCI-H23
SK-MEL-5 = tested on: SK-MEL-5
SF-539 = tested on: SF-539
OVCAR-5 = tested on: OVCAR-5
CAKI-1 = tested on: CAKI-1
COLO 205 = tested on: COLO 205
NCI/ADR-RES = tested on: NCI/ADR-RES
HCT-116 = tested on: HCT-116
HOP-62 = tested on: HOP-62
MDA-MB-231 = tested on: MDA-MB-231
A498 = tested on: A498
OVCAR-4 = tested on: OVCAR-4
RPMI-8226 = tested on: RPMI-8226
T47D = tested on: T47D
MCF7 = tested on: MCF7
HL-60 = tested on: HL-60
BT-549 = tested on: BT-549
K562 = tested on: K562
RXF 393 = tested on: RXF 393
HCT-15 = tested on: HCT-15
MDA-N = tested on: MDA-N
SW-620 = tested on: SW-620
SNB-19 = tested on: SNB-19
NCI-H460 = tested on: NCI-H460
MOLT-4 = tested on: MOLT-4
ACHN = tested on: ACHN
SF-295 = tested on: SF-295
IGROV-1 = tested on: IGROV-1
TK-10 = tested on: TK-10
NCI-H522 = tested on: NCI-H522
HCC 2998 = tested on: HCC 2998
Malme-3M = tested on: Malme-3M

O=C(NCP(=O)(O)O)c1cccnc1 [(NICOTINAMIDOMETHYL)PHOSPHONIC ACID]
GI50 (OVCAR-8): > 100 µM (inactive)
GI50 (HT-29): > 100 µM (inactive)
GI50 (SK-MEL-28): > 100 µM (inactive)
GI50 (SR): > 100 µM (inactive)
GI50 (U-251): > 100 µM (inactive)
GI50 (MDA-MB-435): > 100 µM (inactive)
GI50 (LOX IMVI): > 100 µM (inactive)
GI50 (SK-MEL-2): > 100 µM (inactive)
GI50 (M14): > 100 µM (inactive)
GI50 (PC-3): > 100 µM (inactive)
GI50 (UO-31): > 100 µM (inactive)
GI50 (SK-OV-3): > 100 µM (inactive)
GI50 (SN12C): > 100 µM (inactive)
GI50 (786-0): > 100 µM (inactive)
GI50 (EKVX): > 100 µM (inactive)
GI50 (DU-145): > 100 µM (inactive)
GI50 (SNB-75): 92.3 µM (inactive)
GI50 (UACC-62): > 100 µM (inactive)
GI50 (UACC-257): > 100 µM (inactive)
GI50 (NCI-H226): > 100 µM (inactive)
GI50 (A549): > 100 µM (inactive)
GI50 (CCRF-CEM): > 100 µM (inactive)
GI50 (HOP-92): > 100 µM (inactive)
GI50 (OVCAR-3): > 100 µM (inactive)
GI50 (KM12): > 100 µM (inactive)
GI50 (NCI-H23): > 100 µM (inactive)
GI50 (SK-MEL-5): > 100 µM (inactive)
GI50 (SF-539): > 100 µM (inactive)
GI50 (OVCAR-5): > 100 µM (inactive)
GI50 (CAKI-1): > 100 µM (inactive)
GI50 (COLO 205): > 100 µM (inactive)
GI50 (NCI/ADR-RES): > 100 µM (inactive)
GI50 (HCT-116): > 100 µM (inactive)
GI50 (HOP-62): > 100 µM (inactive)
GI50 (MDA-MB-231): > 100 µM (inactive)
GI50 (A498): > 100 µM (inactive)
GI50 (OVCAR-4): > 100 µM (inactive)
GI50 (RPMI-8226): > 100 µM (inactive)
GI50 (T47D): > 100 µM (inactive)
GI50 (MCF7): > 100 µM (inactive)
GI50 (HL-60): > 100 µM (inactive)
GI50 (BT-549): > 100 µM (inactive)
GI50 (K562): > 100 µM (inactive)
GI50 (RXF 393): > 100 µM (inactive)
GI50 (HCT-15): > 100 µM
GI50 (MDA-N): > 100 µM (inactive)
GI50 (SW-620): > 100 µM (inactive)
GI50 (SNB-19): > 100 µM (inactive)
GI50 (NCI-H460): > 100 µM (inactive)
GI50 (MOLT-4): > 100 µM (inactive)
GI50 (ACHN): > 100 µM (inactive)
GI50 (SF-295): > 100 µM (inactive)
GI50 (IGROV-1): > 100 µM (inactive)
GI50 (TK-10): > 100 µM (inactive)

COC(=O)Cc1c(-c2c(CC(=O)OC)c3ccccc3n2C2OC(COC3OC(COC(C)=O)C(OC(C)=O)C(OC(C)=O)C3OC(C)=O)C(O)C(O)C2O)[nH]c2ccccc12 (stereo unspecified)
GI50 (HT-29): > 100 µM (inactive)
GI50 (SK-MEL-28): > 100 µM (inactive)
GI50 (SR): > 100 µM (inactive)
GI50 (U-251): 44.3 µM (inactive)
GI50 (MDA-MB-435): > 100 µM (inactive)
GI50 (LOX IMVI): > 100 µM (inactive)
GI50 (SK-MEL-2): 24.4 µM (inactive)
GI50 (M14): > 100 µM (inactive)
GI50 (PC-3): > 100 µM (inactive)
GI50 (UO-31): > 100 µM (inactive)
GI50 (SK-OV-3): 74.8 µM (inactive)
GI50 (SN12C): > 100 µM (inactive)
GI50 (786-0): 37 µM (inactive)
GI50 (EKVX): > 100 µM (inactive)
GI50 (DU-145): > 100 µM (inactive)
GI50 (UACC-62): > 100 µM (inactive)
GI50 (UACC-257): > 100 µM (inactive)
GI50 (NCI-H226): 61.4 µM (inactive)
GI50 (A549): > 100 µM (inactive)
GI50 (CCRF-CEM): > 100 µM (inactive)
GI50 (HOP-92): 27.9 µM (inactive)
GI50 (OVCAR-3): > 100 µM (inactive)
GI50 (NCI-H23): > 100 µM (inactive)
GI50 (SK-MEL-5): > 100 µM (inactive)
GI50 (SF-539): 51.5 µM (inactive)
GI50 (OVCAR-5): > 100 µM (inactive)
GI50 (CAKI-1): > 100 µM (inactive)
GI50 (COLO 205): > 100 µM (inactive)
GI50 (HCT-116): > 100 µM (inactive)
GI50 (HOP-62): 23 µM (inactive)
GI50 (MDA-MB-231): 29.2 µM (inactive)
GI50 (A498): 57.8 µM (inactive)
GI50 (RPMI-8226): > 100 µM (inactive)
GI50 (T47D): > 100 µM (inactive)
GI50 (MCF7): > 100 µM (inactive)
GI50 (HL-60): > 100 µM (inactive)
GI50 (BT-549): 44.7 µM (inactive)
GI50 (K562): > 100 µM (inactive)
GI50 (HCT-15): > 100 µM
GI50 (MDA-N): > 100 µM (inactive)
GI50 (SW-620): > 100 µM (inactive)
GI50 (SNB-19): 22.8 µM (inactive)
GI50 (NCI-H460): > 100 µM (inactive)
GI50 (MOLT-4): > 100 µM (inactive)
GI50 (ACHN): > 100 µM (inactive)
GI50 (SF-295): 36.6 µM (inactive)
GI50 (IGROV-1): 75.3 µM (inactive)
GI50 (TK-10): 71 µM (inactive)

CCOC(=O)CCC(NC(=O)C(CC(=O)OC)NC(=O)OCc1ccccc1)C(=O)NC(CC(=O)OC)C(=O)NC(CCC(=O)OCC)C(=O)NC(CC(=O)OC)C(=O)NC(CCC(=O)OCC)C(=O)NC(CC(=O)OCC)C(=O)OCC (stereo unspecified) (Cbz-D(OMe)E(OEt)D(OMe)E(OEt)D(OMe)E(OEt)D(OEt)-OEt; configuration not given here)
GI50 (OVCAR-8): > 100 µM (inactive)
GI50 (HT-29): > 100 µM (inactive)
GI50 (SR): > 100 µM (inactive)
GI50 (U-251): > 100 µM (inactive)
GI50 (MDA-MB-435): > 100 µM (inactive)
GI50 (NCI-H522): > 100 µM (inactive)
GI50 (LOX IMVI): > 100 µM (inactive)
GI50 (SK-MEL-2): > 100 µM (inactive)
GI50 (PC-3): > 100 µM (inactive)
GI50 (UO-31): > 100 µM (inactive)
GI50 (HCC 2998): > 100 µM (inactive)
GI50 (SN12C): > 100 µM (inactive)
GI50 (786-0): > 100 µM (inactive)
GI50 (DU-145): > 100 µM (inactive)
GI50 (UACC-62): > 100 µM (inactive)
GI50 (UACC-257): > 100 µM (inactive)
GI50 (NCI-H226): > 100 µM (inactive)
GI50 (A549): > 100 µM (inactive)
GI50 (CCRF-CEM): > 100 µM (inactive)
GI50 (OVCAR-3): > 100 µM (inactive)
GI50 (NCI-H23): > 100 µM (inactive)
GI50 (SK-MEL-5): > 100 µM (inactive)
GI50 (OVCAR-5): > 100 µM (inactive)
GI50 (HCT-116): > 100 µM (inactive)
GI50 (HOP-62): > 100 µM (inactive)
GI50 (MDA-MB-231): > 100 µM (inactive)
GI50 (A498): 98.9 µM (inactive)
GI50 (OVCAR-4): > 100 µM (inactive)
GI50 (RPMI-8226): > 100 µM (inactive)
GI50 (T47D): > 100 µM (inactive)
GI50 (MCF7): > 100 µM (inactive)
GI50 (HL-60): > 100 µM (inactive)
GI50 (BT-549): > 100 µM (inactive)
GI50 (K562): > 100 µM (inactive)
GI50 (HCT-15): > 100 µM
GI50 (MDA-N): > 100 µM (inactive)
GI50 (SW-620): > 100 µM (inactive)
GI50 (SNB-19): > 100 µM (inactive)
GI50 (NCI-H460): > 100 µM (inactive)
GI50 (MOLT-4): > 100 µM (inactive)
GI50 (Malme-3M): > 100 µM (inactive)
GI50 (ACHN): > 100 µM (inactive)
GI50 (IGROV-1): > 100 µM (inactive)
GI50 (TK-10): > 100 µM (inactive)
